In US20220143010A1, “CANCER TREATMENT COMPRISING NALTREXONE AND A CANNABINOID” (LDN Pharma Limited, priority 2019, published 2022):
“Also recorded” adds a separate entry of the source. Where two headings read alike, the source gives them in different places.

What was measured:
Type in all cases: cell-based
CB2 = assay: Western blot of CB2 levels in MCF7 cultures after two days of treatment; settings: for levels of the CB2 receptor after treatment: cancer cells (MCF7), summary statement
Protocol: Levels of Bcl2-associated death promoter (BAD), p21 protein, the opioid receptors kappa 1 (OPRK1) and mu 1 (OPRM1), and the cannabinoid receptors CBR1 (CB1) and CBR2 (CB2) are visualised by Western blot (left) against GAPDH as a loading control, and quantified via density analysis relative to GAPDH (right).
One illustrative and non-limiting experiment was carried out on cultures of MCF7 (breast cancer) cells. In brief, either LDN at 10 nM or 6BN at 1 μM or 10 μM was administered in vitro to a culture for two days, after which the expression levels of BAD, p21, opioid receptors kappa and mu, CB1, CB2, and GAPDH (as a loading control) were analysed via Western blot and subsequent quantification via density measurement of the bands.
In full, MCF7 cells were seeded into 6-well plates at a density of 1×10^5/well and left to adhere over-night. Naltrexone (10 nM) or 6-β-naltrexol (1 μM or 10 μM) were added to the cells before harvesting cells for western blot analysis. Primary probing was performed with specific antibodies generated against BAD, p21, OPRK1, […], CBR-1 and CBR-2. […] Anti-GAPDH was used as a loading control. All antibodies were used at a dilution of 1:1000, followed by the appropriate HRP conjugated secondary antibodies also at a dilution of 1:1000. Bands were visualised by the SuperSignal chemiluminescent detection system, and densitometry of band intensity was determined using Adobe Photoshop CS3, v10.0, and normalised to the loading control.

[1] = system: MCF7 (breast cancer) cells; assay: Two-stage sequential treatment, cell number and viability (trypan blue); settings: LDN 10 nM or 6BN 10 μM for 48 h before cannabidiol 10 μM for 48 h, versus reversed sequence
Protocol: Each treatment lasted four days and consisted of two days of treatment with the first agent (UN=control, LDN=Low Dose Naltrexone at 10 nM CBD=Cannabidiol, 6BN=6-β-naltrexol) before the second-named agent was introduced for a further two days.
Another illustrative and non-limiting experiment was carried out on cultures of MCF7 (breast cancer) cells. In brief, the cultures were treated with LDN or 6BN for two days, after which a cannabinoid was administered for a further two days. Cell number and viability were assessed on day four. The sequence of the administration for each therapeutic agent was reversed and the experiment repeated.
In full, MCF7 cells were seeded into 6-well plates at a density of 1.5×10^4/well and left to adhere. Cells were then cultured with naltrexone (10 nM), 6-β-naltrexol (10 μM) or cannabidiol (10 μM). Drug-containing media was removed after 48 h, and cells were rinsed gently with drug-free medium. Fresh culture medium was then added to the cells supplemented with either naltrexone (10 nM), 6-β-naltrexol (10 μM) or cannabidiol (10 μM), as indicated in the graph. Cell number and viability were assessed a further 48 h later, with percentages of live and dead cells being discriminated by trypan blue dye exclusion. Data were then consolidated to compare the effect of sequence on overall effect.

A549 (lung cancer) cells = assay: Two-block schedule LDN+CBD and chemotherapeutic agent, cell number and viability at 96 h
Protocol: • A549 (lung cancer) and HCT116 (colon cancer) cells were cultured with drugs according to the schedules in Table 1. The schedules lasted a total of 96 h. • Treatments were separated into two blocks, each lasting 48 h. Due to the complications of cell testing using three different drugs in three different treatment phases, the CBD and LDN were administered together in one treatment phase and the chemotherapeutic agent in the other treatment phase. • There was a washout period between the two blocks, where exhausted media containing drugs were removed, cells then washed, before fresh media was added that contained the next block of treatment. • The chemotherapeutic agents were gemcitabine (GEM) or oxaliplatin (OXP), and used at an ˜IC20 concentration (1 uM). Low dose naltrexone (LDN) was used at 10 nM and cannabinoid (CBD) was used at 1 uM. “0” means nothing was administered and is used as a control. • Cell number and percentage cell viability were assessed at 96 h. Data were then consolidated to compare the effect of sequence on overall effect.

Row | Compound | rise of CB2 compared among the three treatments (CB2; MCF7 cells, 10 μM 6BN, two days) | levels of the CB2 receptor after treatment (CB2) | effect on inhibiting the proliferation of the cancer, by sequence [1] | IC20 (A549 (lung cancer) cells; Homo sapiens, A549, read-out: IC20 concentration) | IC20 (A549 (lung cancer) cells; concentration used in Example 3, A549 and HCT116, cell line not specified, read-out: IC20 concentration)
1 | Oc1ccc2c3c1OC1C(O)CC[C@@]4(O)[C@@H](C2)N(CC2CC2)CC[C@]314 (stereo partly shown) [6BN, N-cyclopropylmethyl-7,8-dihydro-14-hydroxynorisomorphine] | highest | significant increase | greater effect on inhibiting the proliferation |  | 
2 | Nc1ccn([C@@H]2O[C@H](CO)[C@@H](O)C2(F)F)c(=O)n1 [GEM, gemcitabine] |  |  |  | ~1000 nM | 
3 | O=C1[O][Pt]2([NH][C@@H]3CCCC[C@H]3[NH]2)[O]C1=O [OXP, oxaliplatin] |  |  |  |  | ~1000 nM
4 | O=C1CC[C@@]2(O)[C@H]3Cc4ccc(O)c5c4[C@@]2(CCN3CC2CC2)[C@H]1O5 [LDN, 17-cyclopropylmethyl-4.5α-epoxy-3,14-dihydroxymorphinan-6-one] |  | significant increase; also recorded: increased significantly | greater effect on inhibiting the proliferation |  | 
